This passage reports melting point results from a melting point compilation (Tetko et al.; mined from patent text by program, amines drawn as free bases though some values may be those of a salt).

`CCCCCC(CC(=O)Nc1cc(C(N)=O)ccc1C(C)(C)C)c1ccc(OC)cc1OC` (single isomer, unassigned; (+)) gave a melting point of 152 °C.
`O=C(Cl)N1CCNC1=O` displayed a melting point of 150 °C.
The molecule `C=CC(c1ccccc1)c1c(C)c(NC=O)c(C)c(C)c1O` (stereo not given) yielded a melting point of 144 to 145 °C.
In turn, `O=C(Nc1cccc(NCc2ccccc2)n1)c1cc(-c2ccc(F)cc2)n(C2CCCCO2)n1` (stereo not given) had a melting point of 139 to 140 °C.
As for `COCCn1cc2c(C3C(=O)Nc4ccc(Br)cc43)nc(NCCN3CCOCC3)nc2n1` (stereo not given), the figure is more than 300 °C; as for `CCCCCN(CCC12CC3CC(CC(C3)C1)C2)C(=O)NCCc1ccccn1`, 80 to 100 °C.
As for `O=S(=O)(Nc1cccc(CCOCc2csc(-c3ccccc3Cl)n2)c1)C(F)(F)F`, the figure is 86 to 87 °C; as for `Cc1c(F)cccc1C(=O)Nc1ccc(C(=O)N2Cc3ccnn3Cc3ccccc32)cc1`, 245 to 250 °C; as for `CC(CC(=O)N1CCCC1)Sc1cc(C(C)(C)C)c(O)c(C(C)(C)C)c1` (stereo not given), 95 to 99 °C.
As for `O=C1NC(=O)c2c1c(O)nc1cc(Cl)c(Cl)cc21`, the figure is more than 350 °C; as for `O=C(O)CCNC(=O)NCCCN1CCN(c2ccccc2)CC1`, 169 to 171 °C.
As for `COc1ccc2c(c1)sc1nc(C(O)C3CC3)cn12` (stereo not given), the melting point lay in the range of 151 to 153 °C.
To `O=C(O)c1cccnc1C(=O)c1cccc(C(F)(F)F)c1` belongs 147 to 150 °C; to `CCOC(=O)N1CCN(C(=O)OC2c3ccccc3C(=O)N2c2ccc(Cl)cn2)CC1` (stereo not given), 160 °C.
As for `c1cc(OCC2CCCCC2)ccc1Cc1nnn[nH]1`, the melting point was 156 to 158 °C.
To `CCOC(=O)Cc1cc(Br)c(SC(=O)N(C)C)c(Br)c1` belongs 105 to 107 °C.
Consider `COCOc1ccc(Cl)c(F)c1C=O`, for which the melting point was in the range of 44 to 49 °C.
To `CCOP(=O)(O)Cc1ccc(NC(=O)N2CCN(c3ccc(NC(=O)Nc4cc(C)ccc4OC)cc3)CC2)c(C)c1` belongs 165 to 173 °C.
To `O=C(OCCCc1ccccc1)c1ccc2c(c1)C(Cl)(Cl)c1cc(C(=O)OCCCc3ccccc3)ccc1-2` belongs 91 to 92 °C; to `COc1ccc(NC(=N)N2CCCCC2)c(-c2ccccc2)c1`, 155 °C.
As for `CCOC(=O)CNC(=O)CCCCCNC(=O)c1ccc(S(C)(=O)=O)cc1`, the figure is 124 to 126 °C; as for `CCOC(=O)c1cc2cccc(N(C)C(=O)c3cccs3)c2[nH]1`, 193 °C.
The molecule `CCCCC(=N)OCC` came in with a melting point of 89 to 91 °C.
`CNC(=O)N1CC(Sc2ccc(Cl)cc2)C1` returned a melting point of 161 to 162 °C.
For `CCNC(=O)[C@H](C)C[C@H](O)[C@H](CC1CCCCC1)NC(=O)[C@H](Cc1cscn1)NC(=O)[C@@H](CC(=O)N(C)Cc1ccccc1)Cc1ccccc1`, the melting point was in the range of 148 to 150 °C.
Regarding `CCOC(=O)C1COc2cc(-c3ccccc3)ccc2O1` (stereo not given), the melting point was 103 to 105 °C.
As for `CC(=O)SC(C)CC(=O)N1CCC[C@H]1C(=O)O` (stereo not given in full), the figure is 175 to 176 °C; as for `Nc1cc(C(=O)Nc2ccncc2)ccc1OCC1CCCCC1`, 193 to 194 °C.
To `C[C@@H]1CC=C(S(=O)(=O)c2ccccc2)[C@H](O)C1` belongs 79 to 81 °C.
As for `O=C1Nc2cc(Cl)cc(Cl)c2C1=O`, the figure is 228 to 230 °C; as for `CCOC(=O)C1=Cc2sccc2S(=O)(=O)N1C`, 87 to 89 °C; as for `Nc1c(Cl)cc(C(O)CNCCCCCCOCCc2ccccn2)cc1Cl` (stereo not given), 94 to 96 °C.
`COc1ccccc1OCC(O)CCN1CCN(c2ccccc2)CC1` (stereo not given) came in with a melting point of 101 to 102 °C.
As for `C#CCCCCOc1cc(/C=C/C(=O)Nc2ccccc2C(=O)O)ccc1OC`, the figure is 135 to 137 °C; as for `Cc1nc[nH]c1CSCCNc1nc(C)c(-c2ccccc2)c(=O)[nH]1`, 216 to 218 °C.

Broadly, the melting point is the temperature of the solid-liquid transition.
